{"source": "patent US10899755B2", "about": "“Benzothiazole compounds and uses thereof” (Incyte Corporation, priority 2018, dated 2021)", "key": {"[1]": {"molecular_target": "HPK1", "test": "HPK1 Kinase Binding Assay", "details": "active HPK1 (SignalChem M23-11G), tracer 222, LanthaScreen Eu-Anti GST antibody, one hour incubation at 25° C.", "protocol": "(§1) A stock solution of 1 mM test compound was prepared in DMSO. The compound plate was prepared by 3-fold and 11-point serial dilutions. 0.1 μL of the compound in DMSO was transferred from the compound plate to the white 384 well polystyrene plates. The assay buffer contained 50 mM HEPES, pH 7.5, 0.01% Tween-20, 5 mM MgCl2, 0.01% BSA, and 5 mM DTT. 5 μL of 4 nM active HPK1 (SignalChem M23-11G) prepared in the buffer was added to the plate. The enzyme concentration given was based on the given stock concentration reported by the vender. […] After one hour incubation at 25° C., the plates were read on a PHERAstar FS plate reader (BMG Labtech). Ki values were determined."}, "[2]": {"molecular_target": "HPK1 (Homo sapiens, UniProt Q92918)", "sequence (Q92918 whole entry, looked up)": "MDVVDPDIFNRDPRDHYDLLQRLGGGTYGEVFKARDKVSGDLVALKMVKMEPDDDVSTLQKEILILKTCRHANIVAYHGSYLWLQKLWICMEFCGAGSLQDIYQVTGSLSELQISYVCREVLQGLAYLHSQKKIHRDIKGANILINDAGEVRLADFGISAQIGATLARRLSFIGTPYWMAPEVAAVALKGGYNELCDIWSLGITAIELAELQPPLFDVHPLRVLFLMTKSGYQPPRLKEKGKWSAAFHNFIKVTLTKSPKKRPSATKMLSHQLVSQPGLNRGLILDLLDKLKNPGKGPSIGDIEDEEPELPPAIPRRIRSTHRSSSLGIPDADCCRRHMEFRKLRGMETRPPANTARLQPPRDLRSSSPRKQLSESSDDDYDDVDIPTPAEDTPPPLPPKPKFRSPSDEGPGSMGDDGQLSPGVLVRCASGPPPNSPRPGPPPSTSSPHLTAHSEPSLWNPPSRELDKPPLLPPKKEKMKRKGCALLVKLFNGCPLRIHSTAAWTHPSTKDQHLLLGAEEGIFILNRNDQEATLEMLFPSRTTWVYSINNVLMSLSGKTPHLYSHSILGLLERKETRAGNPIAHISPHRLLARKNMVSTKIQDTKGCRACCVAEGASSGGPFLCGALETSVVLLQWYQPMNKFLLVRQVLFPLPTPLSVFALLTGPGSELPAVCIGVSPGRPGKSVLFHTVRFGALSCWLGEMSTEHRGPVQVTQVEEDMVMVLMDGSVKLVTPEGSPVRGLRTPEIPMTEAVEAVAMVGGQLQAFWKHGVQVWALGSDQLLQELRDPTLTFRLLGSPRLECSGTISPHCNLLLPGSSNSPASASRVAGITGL", "test": "HPK1 Kinase Binding Assay", "details": "active HPK1 (SignalChem M23-11G), tracer 222, LanthaScreen Eu-Anti GST antibody, one hour incubation at 25° C.", "protocol": "as §1"}}}
{"smiles": "Cc1nc2c(N3CC[C@@H](N)C3)c(NC(=O)c3ccnc(-c4c(F)cccc4C(F)(F)F)n3)ccc2s1", "note": "[Example 3, (R)—N-(4-(3-Aminopyrrolidin-1-yl)-2-methylbenzo[d]thiazol-5-yl)-2-(2-fluoro-6-(trifluoromethyl)phenyl)pyrimidine-4-carboxamide]", "values": [{"measurement": "Ki", "setting": "[1]", "result": "< 100", "unit": "nM"}]}
{"smiles": "COc1cccc(F)c1-c1nccc(C(=O)Nc2ccc3sc(C)nc3c2N(C)CC2CCN(C)C2)n1", "note": "(stereo not drawn) [Example 24, 2-(2-Fluoro-6-methoxyphenyl)-N-(2-methyl-4-(methyl((1-methylpyrrolidin-3-yl)methyl)amino)benzo[d]thiazol-5-yl)pyrimidine-4-carboxamide]", "values": [{"measurement": "Ki", "setting": "[2]", "result": "< 100", "unit": "nM"}]}
{"smiles": "COc1cccc(C(N)=O)c1-c1nccc(C(=O)Nc2ccc3sc(C)nc3c2N2C[C@H](N)C[C@H]2CO)n1", "note": "[Example 14, N-(4-((2S,4R)-4-Amino-2-(hydroxymethyl)pyrrolidin-1-yl)-2-methylbenzo[d]thiazol-5-yl)-2-(2-carbamoyl-6-methoxyphenyl)pyrimidine-4-carboxamide]", "values": [{"measurement": "Ki", "setting": "[2]", "result": "100 to 500", "unit": "nM"}]}
